*1 amine or outer side, *2 acyl side, *3 side chain or, on linkers, in order; H or OH if unused. Where a SMILES comes first, the peptide text is derived from it. Bridges are numbered along the chain shown (N, C = ends). [ ]: non-standard residue; d: D form. TBMB = c1c(C[*:1])cc(C[*:3])cc1C[*:2]; hArg = N=C(N)NCCCC[C@H](N)C(=O)O; Aze = O=C(O)[C@@H]1CCN1; Sar = CNCC(=O)O
Columns and labels:
[1] = Intravenous pharmacokinetics in rat; type: in vivo; settings: in vivo, Table 8, Sprague Dawley rat, iv 5 mg/kg
Protocol: Peptides used for the pharmacokinetic studies in Example 4 were lyophilised from 10 mM HCl in water 3 times to afford the hydrochloride salts of the compounds. Solutions were dosed by intravenous bolus at 1 mg/mL in 50 mM Hepes pH 7.0, 5% glycerol, 1.9% DMSO for two compounds (Ac-(06-550) Aze3 HArg5 Sar3-(D-Arg2)) and (06-259-02)-Sar3-(D-Arg2)) at 5 mg/kg in Spraguely Dawely rats. Serial blood samples (˜0.2 mL) were taken into EDTA tubes at the indicated time points, and plasma was separated by centrifugation, and frozen at −20 C for analysis. Employing standard bioanalytical techniques, plasma samples were then analysed and quantified for parent remaining compound using a Waters, Xevo TQS LC-MS. PK parameters were determined using the software package PK Solutions 2.0 from Summit Research Services.
Peptides Ac-(06-550)-Sar3-(D-Arg)2Aze3 HArg5 (which contains the stabilising and affinity enhancing modifications Aze3 and HArg5, and a solubilising C-terminal extension Sar3-(D-Arg)2) (SEQ ID NO: 98) and Ac-(06-259-02)-Sar3-(D-Arg)2 were selected for pharmacokinetic assessment in rat. Peptides were injected intravenously in buffered solution at 1 mg/mL at 5 mg/kg Sprague Dawley rats, and blood was sampled and analysed for peptide concentrations at a number of time points post injection.

[2] = Pharmacokinetics following intravitreal injection in rabbit; type: in vivo; settings: vitreous humour; New Zealand White rabbit, intravitreal 100 μg/eye; read-out: elimination half-life from the vitreous humour
Protocol: In this analysis, peptide Ac-(06-550)-Sar3-(D-Arg)2 Aze3 HArg5 (referred to in this study as Bicycle 1 and which contains the stabilising and affinity enhancing modifications Aze3 and HArg5, and a solubilising C-terminal extension Sar3-(D-Arg)2 (SEQ ID NO: 98); see Examples 3 and 4 herein) was assessed comparatively against the peptide Ac-(06-34-18) Phe2 Aze3 Tyr4 HArg5 Ala(ψCH2NH)6 (referred to in this study as Bicycle 2 and which is disclosed in Table 26b and FIG. 22 of PCT/EP2014/057440). New Zealand White rabbits (2-3 kg) were anaesthetized and both peptides were administered by intravitreal injection (100 μg/eye) according to the protocol described in Table 9.
After an appropriate time, rabbits were euthanized and vitreous humour, aqueous humour, retina and plasma samples were taken. Samples were analysed by LC-MS to determine the concentration of the peptide. The results of this study are shown in FIG. 5 where it can be observed that both peptides were slowly cleared from the vitreous humour, with elimination half-lives of 20-30 h.

[3] = Plasma stability profiling Method #2 (95% plasma, MALDI-TOF), human plasma; type: in vitro ADME; settings: qualitative, sampled up to 46 hrs
Protocol: (§1) To obtain stability data more rapidly, peptides were also assessed in 95% plasma. Here, PBS was omitted, and a 1-5 mM peptide stock (in DMSO) was directly diluted into plasma (i.e. 2.5 μL stock into 47.5 μL plasma), giving a final concentration of 50 μM. 5 μL samples were taken at appropriate time points and frozen at −80° C. For analysis, the samples were defrosted, mixed with 25 μL of 3:3:1 acetonitrile:methanol:water, and centrifuged at 13 k for 5 min. 5 μL of the peptide-containing supernatant was aspirated and mixed with 30 mM ammonium bicarbonate in a 1:1 mixture of acetonitrile:H2O. 1 μL of this was then spotted on the MALDI plate and analysed as described above. As above, it should be noted that this is a qualitative assay serves to detect relative changes in plasma stability.

[4] = Plasma stability profiling Method #2 (95% plasma, MALDI-TOF), rat plasma; type: in vitro ADME; settings: qualitative, sampled up to 46 hrs
Protocol: as §1

human plasma kallikrein = molecular target: T1, human plasma kallikrein (Homo sapiens, UniProt P03952); assay: Functional enzyme assay, inhibition of human plasma kallikrein (Z-PheArg-AMC substrate); type: biochemical
T1 construct: purchased Stratech, UK
How it was run: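 Buffer 10 mM Tris HCl, 150 mM NaCl, 10 mM MgCl2, 1 mM CaCl2, 1 mg/mL BSA, pH 7.4, 25° C. AMC release read at ex 360/em 460 nm; linear-phase rate (typically 5–45 min) fitted by four-parameter non-linear regression for IC50, with Ki also derived.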

T1 sequence (P03952 391-638 limits assumed): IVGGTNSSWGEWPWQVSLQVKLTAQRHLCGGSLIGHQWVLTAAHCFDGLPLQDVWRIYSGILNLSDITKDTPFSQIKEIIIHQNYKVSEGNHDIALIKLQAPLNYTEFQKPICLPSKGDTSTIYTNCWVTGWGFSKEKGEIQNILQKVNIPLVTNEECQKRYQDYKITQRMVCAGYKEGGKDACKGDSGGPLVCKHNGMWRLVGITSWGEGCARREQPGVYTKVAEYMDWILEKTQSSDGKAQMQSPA
T1 sequence (P03952 20-390 partner limits assumed): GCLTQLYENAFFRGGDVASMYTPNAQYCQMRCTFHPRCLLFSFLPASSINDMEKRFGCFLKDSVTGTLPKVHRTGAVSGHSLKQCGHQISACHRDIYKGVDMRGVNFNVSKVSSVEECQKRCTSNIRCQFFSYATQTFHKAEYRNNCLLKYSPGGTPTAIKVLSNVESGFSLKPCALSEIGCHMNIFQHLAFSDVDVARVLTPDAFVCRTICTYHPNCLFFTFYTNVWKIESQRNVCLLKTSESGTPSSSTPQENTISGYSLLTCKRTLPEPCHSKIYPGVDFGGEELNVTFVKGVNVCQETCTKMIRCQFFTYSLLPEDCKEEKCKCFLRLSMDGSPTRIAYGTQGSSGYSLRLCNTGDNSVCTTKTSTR

CC[C@H](C)[C@@H]1NC(=O)[C@H](CC(=O)O)NC(=O)[C@@H]2CCCN2C(=O)[C@H](Cc2ccc(O)cc2)NC(=O)[C@H](Cc2ccc(O)cc2)NC(=O)[C@H](C(C)C)NC(=O)[C@@H]2CSCc3cc(cc(c3)CSC[C@@H](C(=O)N[C@@H](C)C(=O)N(C)CC(=O)N(C)CC(=O)N(C)CC(=O)N[C@H](CCCNC(=N)N)C(=O)N[C@H](CCCNC(=N)N)C(N)=O)NC1=O)CSC[C@H](NC(C)=O)C(=O)N[C@@H](CO)C(=O)N[C@@H](Cc1ccccc1)C(=O)N1CC[C@H]1C(=O)N[C@@H](Cc1ccc(O)cc1)C(=O)N[C@@H](CCCCNC(=N)N)C(=O)N2 [Ac-(06-550)-Sar3-(DArg2) Aze3HArg5] (Ac-CSF[Aze]Y[hArg]CVYYPDICA[Sar][Sar][Sar][dR][dR]-NH2; linker 1-7-14 via TBMB; C-terminus assumed)
clearance [1]: 17 mL/min/kg | Vd ([1]; read-out: Vss): 0.4 L/kg | half-life ([1]; read-out: t1/2 elimination): 2.27 h | half-life [2]: 20 to 30 h | comparative stability in human plasma [3]: high stability | comparative stability in human plasma ([3]; listed as 06-550 derivative): Little degradation is observed | comparative stability in rat plasma [4]: high stability | comparative stability in rat plasma ([4]; listed as 06-550 derivative): Little degradation is observed | Ki (human plasma kallikrein): 0.4 nM
